Source: patent US20080176902A1, “Salt III” (ASTRAZENECA AB, priority 2005, published 2008)

Molecular target: T1, recombinant human CCR1 (Homo sapiens, UniProt P32246)
T1 construct: expressed in transfected cells; membranes prepared from them
T1 sequence (P32246 1-355): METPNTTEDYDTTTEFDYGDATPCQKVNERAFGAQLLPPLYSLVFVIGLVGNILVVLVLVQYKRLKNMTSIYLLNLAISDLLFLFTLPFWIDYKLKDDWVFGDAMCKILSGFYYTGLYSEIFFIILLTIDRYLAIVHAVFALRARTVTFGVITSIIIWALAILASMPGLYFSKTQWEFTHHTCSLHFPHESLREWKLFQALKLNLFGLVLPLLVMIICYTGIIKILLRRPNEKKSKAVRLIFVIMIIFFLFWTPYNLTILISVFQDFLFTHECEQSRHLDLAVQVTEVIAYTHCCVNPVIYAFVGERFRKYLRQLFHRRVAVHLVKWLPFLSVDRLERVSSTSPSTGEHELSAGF
Experiment: Human CCR1 binding assay ([125I] MIP-1α displacement, HEK-CCR1 membranes)
Details: HEK293 membranes expressing recombinant human CCR1; 33 pM [125I] MIP-1α
Protocol: HEK293 cells, from ECACC, stably expressing recombinant human CCR1 (HEK-CCR1) were used to prepare cell membranes containing CCR1. The membranes were stored at −70° C. The concentration of membranes of each batch was adjusted to 10% specific binding of 33 pM [^125I] MIP-1α.
100 μL of HEK-CCR1 membranes diluted in assay buffer pH 7.4 (137 mM NaCl (Merck, Cat No 1.06404), 5.7 mM Glucose (Sigma, Cat No G5400), 2.7 mM KCl (Sigma, Cat No P-9333), 0.36 mM NaH2PO4×H2O (Merck, Cat No 1.06346), 10 mM HEPES (Sigma, Cat No H3375), 0.1% (w/v) Gelatine (Sigma, Cat No G2625)) with the addition of 17500 units/L Bacitracin (Sigma, Cat No B1025) were added to each well of the 96 well filter plate (0.45 μm opaque Millipore cat no MHVB N4550). […] 12 μl assay buffer with 10% DMSO was added to certain wells (without compound) to detect maximal binding (B0).
12 μL [^125I] MIP-1α, diluted in assay buffer to a final concentration in the wells of 33 pM, was added to all wells. The plates with lid were then incubated for 1.5 hrs at room temperature. After incubation the wells were emptied by vacuum filtration (MultiScreen Resist Vacuum Manifold system, Millipore) and washed once with 200 μl assay buffer. After the wash, all wells received an addition of 50 μL of scintillation fluid (OptiPhase “Supermix”, Wallac Oy, Turko, Finland). Bound [^125I] MIP-1: was measured using a Wallac Trilux 1450 MicroBeta counter. […]

IC50: < 50 nM
SMILES: CC(=O)Nc1ccc(O)cc1OC[C@@](C)(O)CNC1CCN(Cc2ccc(Cl)cc2)CC1 [N-{2-[((2S)-3-{[1-(4-chlorobenzyl)piperidin-4-yl]amino}-2-hydroxy-2-methylpropyl)oxy]-4-hydroxyphenyl}acetamide ditrifluoroacetate]
